Source: US20030133958A1, “External agent for the skin and whitening agent” (priority 2000, published 2003)

System: B-16 melanoma cells
Test: Test for evaluating melanogenesis-inhibitory function (cell-whitening degree) in cell culture systems using B-16 melanoma cells
Format: cell-based
Parameters: key to Whitening degree: ++: The whitening degree is higher than that observed when adding 450 μg/mL of vitamin C-magnesium phosphate.; +: The whitening degree is almost identical to that observed when adding 450 μ g/mL of vitamin C-magnesium phosphate.; ±: The whitening degree is not higher than that observed when adding 450 μg/mL of vitamin C-magnesium phosphate, but higher than that of the control.; −: The whitening degree is almost identical to that observed for the control
Settings: for Whitening degree: B-16 melanoma cells
Description: The B-16 melanoma cell is one having an ability of producing melanin and therefore, the cells naturally grown by cell culture blacken. If a substance capable of inhibiting melanogenesis is present in the cell growth system during the cell growth, the blackening of the cells is inhibited and they relatively whiten. Accordingly, the whitening effect of each candidate substance can be evaluated on the basis of the degree of whiteness observed when adding a test sample relative to the degree of blackness observed for a control. […] To evaluate this cytotoxicity, the cell survival rate observed when adding a test sample to the system is compared with that observed for the control. Thus, the substantial whitening effect can be evaluated on the basis of the results of these cell-whitening test and cytotoxicity test.
An example of such a method for evaluating the melanogenesis-inhibitory function in a cell culture system using B-16 melanoma cells comprises, for instance, the steps of dispensing 2 ml/well of a culture medium to each well of a 6-well plate, inoculating a desired amount of melanoma cells to the medium, cultivating the cells by allowing the medium to stand at 37° C. and a carbon dioxide concentration of 5%. On the following day, a solution of a test sample is added and mixed with the culture medium to a predetermined concentration and the cell cultivation is continued. After 5 days from the initiation of the cultivation, the culture medium is replaced with fresh one and the solution of the test sample is again added thereto. On the next day, the medium is removed to thus recover the cells, followed by washing them with PBS (phosphate-buffered saline) and the determination of the degree of whiteness to thus evaluate the whitening effect of the test sample. In this connection, the melanogenesis-inhibitory function is evaluated by comparing the results thus obtained with the degree of whiteness observed when the same procedures are repeated using the vitamin C-magnesium phosphate as a known whitening agent instead of the test sample solution (positive control) and that observed when the procedures are repeated without addition of any test sample (control).
A culture medium was dispensed to wells of a 6-well plate (2 mL/well each), followed by inoculation of a desired amount of B-16 melanoma cells on each well, allowing the wells to stand at 37° C. and 5% CO2 to thus cultivate the cells. On the day subsequent thereto, a sample solution prepared was added to the wells with stirring and the cultivation was continued. The culture medium was replaced with fresh one on the 5th day from the initiation of the cultivation and the sample solution was again added to the wells. On the next day, the culture medium was removed to recover the cells, followed by washing them with PBS (phosphate buffered physiological saline) and then evaluation of the cell-whitening degree In this respect, the melanogenesis-inhibitory function was evaluated by comparing the cell-whitening degree thus obtained with that observed when the same procedures used above were repeated except that vitamin C-magnesium phosphate as a known whitening agent (positive control) was substituted for the sample solution used above and that observed when the same procedures used above were repeated except that any sample was not added (control), according to the following evaluation criteria.
The evaluation criteria for the cell-whitening degree are as follows: […]

| Molecule | Whitening degree (concentration 2 ppm) | Whitening degree (concentration 4 ppm) | Whitening degree (concentration 6 ppm) | Whitening degree (concentration 8 ppm) | Whitening degree (concentration 10 ppm) | Whitening degree (concentration 15 ppm) | Whitening degree (concentration 25 ppm) | Whitening degree (concentration 50 ppm) | whitening effect (melanogenesis-inhibitory function), in words |
| --- | --- | --- | --- | --- | --- | --- | --- | --- | --- |
| CCOC(=O)[C@]12CCC(C)(C)C[C@H]1C1=CC[C@@H]3[C@@]4(C)C[C@@H](O)[C@H](O)C(C)(C)[C@@H]4CC[C@@]3(C)[C@]1(C)CC2 [Compound of Synthesis 1, Ethyl Ester of Maslinic Acid] | ± | + | ++ | ++ | ++ |  |  |  |  |
| CC(=O)O[C@@H]1C[C@]2(C)[C@H]3CC=C4[C@@H]5CC(C)(C)CC[C@]5(C(=O)O)CC[C@@]4(C)[C@]3(C)CC[C@H]2C(C)(C)[C@H]1OC(C)=O [Compound of Synthesis 2, 2,3-O-Di-Acetyl-Maslinic Acid] | ± | ± | + | ++ | ++ | ++ |  |  |  |
| CC(=O)OCC12CCC(C)(C)CC1C1=CCC3C4(C)CCC(OC(C)=O)C(C)(C)C4CCC3(C)C1(C)CC2 (centres unmarked) [Compound of Synthesis 5, 3,28-O-Di-Acetyl-Erythrodiol] | ± | ± | ± | ± | ± | ± | + | + |  |
| CC(=O)OC[C@]12CC[C@@H](C)[C@H](C)[C@H]1C1=CC[C@@H]3[C@@]4(C)CC[C@H](OC(C)=O)C(C)(C)[C@@H]4CC[C@@]3(C)[C@]1(C)CC2 [Compound of Synthesis 6, 3,28-O-Di-Acetyl-Uvaol] | − | − | − | ± | + | + | + | + |  |
| C=C(C)[C@@H]1CC[C@]2(C(=O)OCC)CC[C@]3(C)[C@H](CC[C@@H]4[C@@]5(C)CC[C@H](O)C(C)(C)[C@@H]5CC[C@]43C)[C@@H]12 [Compound of Synthesis 7, Ethyl Ester of Betulinic Acid] | − | ± | ± | ± | + | + | + | + |  |
| C=C(C)[C@@H]1CC[C@]2(COC(C)=O)CC[C@]3(C)[C@H](CC[C@@H]4[C@@]5(C)CC[C@H](OC(C)=O)C(C)(C)[C@@H]5CC[C@]43C)[C@@H]12 [Compound of Synthesis 8, 3,28-O-Di-Acetyl-Betulin] | − | − | ± | ± | ± | + | + | + |  |
| C=C(C)[C@@H]1CC[C@]2(C)CC[C@]3(C)[C@H](CC[C@@H]4[C@@]5(C)CC[C@H](O)C(C)(C)[C@@H]5CC[C@]43C)[C@@H]12 [lupeol, reference compound] |  |  |  |  |  |  |  |  | never show any whitening effect |
| CC1(C)CC[C@]2(C(=O)O)CC[C@]3(C)C(=CC[C@@H]4[C@@]5(C)CC[C@H](O)C(C)(C)[C@@H]5CC[C@]43C)[C@@H]2C1 [oleanolic acid, reference compound] |  |  |  |  |  |  |  |  | never show any whitening effect |
| C[C@H]1[C@H](C)CC[C@]2(C)CC[C@]3(C)C(=CC[C@@H]4[C@@]5(C)CC[C@H](O)C(C)(C)[C@@H]5CC[C@]43C)[C@H]12 [α-amyrin, reference compound] |  |  |  |  |  |  |  |  | never show any whitening effect |
| CC1(C)CC[C@]2(C)CC[C@]3(C)C(=CC[C@@H]4[C@@]5(C)CC[C@H](O)C(C)(C)[C@@H]5CC[C@]43C)[C@@H]2C1 [β-amyrin, reference compound] |  |  |  |  |  |  |  |  | never show any whitening effect |
| Ethyl Ester of 2,3-O-Di-Stearoyl-Maslinic Acid [Compound of Synthesis 4] | ± | ± | + | ++ | ++ | ++ |  |  |  |
